Experimental data taken from patent US12516237B2, “Alkyl lactone-derived corrosion inhibitors” (ChampionX LLC, priority 2018, dated 2026).

Assay: Bubble cell test: corrosion rate of steel electrode by aqueous linear polarization resistance (LPR) in CO2-saturated synthetic oilfield brine/oil
Conditions: 15 h after dosing, 80° C., 80% water cut, CO2 purge, C1018, samples 10 ppm of 20% active + 2% 2ME; for % Protection (corrosion inhibition): relative to baseline corrosion rate before dosing, comparatives 20 ppm of 10% active + 1% 2ME; for Inhibited Corrosion Rate: comparatives 20 ppm of 10% active + 1% 2ME (same active concentration)
Excerpt: The bubble cell test was used to investigate the effectiveness of alkyl lactone-derived hydroxyamides as corrosion inhibitors. This test measures the corrosion rate of a steel electrode by aqueous linear polarization resistance (LPR). The steel electrodes (C1018) were placed in a bath of synthetic oilfield brine which was deaerated with carbon dioxide. The corrosion rate of the electrode was compared in the absence or presence of an alkyl lactone-derived hydroxyamide.
The synthetic oilfield brine contained about 3 wt % of sodium chloride, and the oil included a synthetic oil of INT-200 and xylene. The ratio of water to oil was 80:20. The oil/brine was placed into bubble cells and purged with CO2. The oil/brine was continually purged with CO2 to saturate the oil/brine prior to starting the test. The test cells were blanketed with CO2 throughout the duration of the test to maintain saturation. The bubble cells were stirred at 100 revolutions per minute (rpm) for the duration of the test to maintain thermal equilibrium at 80° C. The electrodes were all cleaned and polished prior to testing.
After about 3 hours of pre-corrosion time (i.e. without a corrosion inhibitor) 10 ppm of a 20% active of an alkyl-lactone chemistry (shown in Table 2 and prepared as described in Example 1) with 2% 2-mercaptoethanol (2ME) solvent was added. Comparison with a benzyl ammonium chloride quarternary chemistry and imidazoline chemistry was made at the same active concentration as the alkyl lactone together with 2ME (at the same dose based on chemistry and 2ME activity—i.e. these were dosed at twice the concentration because the active and 2ME in the test blend was half).

| SMILES | % Protection (corrosion inhibition) [%] | Inhibited Corrosion Rate [mpy] |
| --- | --- | --- |
| CCCCCCCC(O)CCC(=O)NCCCN(C)C (stereo not drawn) [Sample 1, γ-Undecalactone/DMAPA] | 37 | 181 |
| CCCCCCC(O)CCCC(=O)NCCCN(C)C (stereo not drawn) [Sample 2, δ-Undecalactone/DMAPA] | 43 | 151 |
| CCCCC(O)CCC(=O)NCCCN(C)C (stereo not drawn) [Sample 3, γ-Octalactone/DMAPA] | 31 | 177 |
